Laboratory results: the OPERA property sets (Mansouri et al. 2018)
Values after ≈ are worked out from the molar mass of the structure shown. Where a SMILES comes first, the peptide text is derived from it. The star is where a group is joined. NHtBu = CC(C)(C)N*

Conditions: not given

Structure (SMILES) | logP | solubility [mM]
CC(=O)NC(C)C(=O)NC(CC(=O)O)C(=O)NC(C)(C)C (stereo not drawn) (Ac-Ala-Asp-NHtBu; configuration not given here) | -0.74 | –
O=C1c2ccccc2C(=O)c2c(O)cccc21 | 3.52 | –
Oc1ccc(C2CNCCc3c2cc(O)c(O)c3Cl)cc1 (centres undefined) | 2.39 | –
NS(=O)(=O)c1nc2ccc(OCc3ccccc3)cc2s1 | 3.18 | –
C[C@H](CCC(=O)O)[C@H]1CC[C@H]2[C@@H]3CC[C@@H]4C[C@H](O)CC[C@]4(C)[C@H]3C[C@H](O)[C@]12C | 3.5 | –
CN(C)C1CSSC1 | – | 13.4 (≈ 2 mg/mL)
COCC(C)OC(=O)C(N)Cc1ccc(O)c(O)c1 (centres undefined) | 0.08 | –
COc1nc(NC(C)C)nc(NC(C)C)n1 | 2.99 | –
CC(=O)NCCc1ccccc1 | 1.19 | –
COc1ccc2c3c1O[C@H]1[C@@H](O)C=C[C@H]4[C@@H](C2)NCC[C@@]341 | 0.69 | –
ClC1=C(Cl)C2(Cl)C3C(Cl)C(Cl)(Cl)CC3C1(Cl)C2(Cl)Cl (centres undefined) | 6.2 | –
CCCCCCCCCC(C)=O | 4.09 | –
OCc1cc(Br)cc(Br)c1O | 2.72 | –
O=C1OC(=Nc2ccc(Cl)cc2)C2=C1CCCC2 | 3.84 | –
NC(=O)N=NC(N)=O | -1.7 | –
CN(C(=O)C(Cl)Cl)c1ccc(OC(=O)c2ccccc2)cc1 | 2.56 | –
Cc1cc(Cl)c(Cl)cc1Cc1c(Cl)cccc1Cl | 7.15 | –
N#CCCCCCCC#N | 0.59 | –
CC(C)C(C#N)c1ccc(Cl)cc1 (centres undefined) | 3.41 | –
Oc1cccc(-c2ccccc2O)c1 | 4.06 | –
C#CCN1C(=O)COc2cc(F)c(N3C(=O)C4=C(CCCC4)C3=O)cc21 | 2.55 | –
C=Cc1cc(C)ccc1C | 4.16 | –

Structure (SMILES) | logP | solubility [mM]
O=C1CCC(c2cccnc2)N1 (centres undefined) | -0.3 | –
OCc1c2ccccc2cc2ccccc12 | 3.04 | –
CCCCc1oc(C)cc(=O)c1O | 1.92 | –
CCCC(=O)OCN1C(=O)NC(c2ccccc2)(c2ccccc2)C1=O | 3.34 | –
CC1=CCC(=C(C)C)CC1 | 4.47 | –
CCC(=O)CC | – | 558 (≈ 48.1 mg/mL)
COc1ccc(C(C)NCCC(c2ccccc2)c2ccccc2)cc1OC (centres undefined) | 5.8 | –
COc1c(O)cc(C)c(O)c1OC | 1.05 | –
CC(=O)OCN1C(=O)C2CC=CCC2C1=O (centres undefined) | 0.97 | –
C=C(C)C1CCC(C)(O)C1C (centres undefined) | 2.87 | –
COc1ccc(C(=O)CS(=O)(=O)c2ccccc2)cc1 | 2.18 | –
COc1ccc(Nc2ccnc3cc(Cl)ccc23)cc1 | 4.94 | –
CCC(=O)OCC1OC(n2cnc3c(OC)ncnc32)C(OC(=O)CC)C1OC(=O)CC (centres undefined) | 2.75 | –
O=C(O)CCCCn1nnc2ccccc21 | 0.48 | –
CN(C)c1ccc(N=C=S)cc1 | 3.96 | –
CC(Cc1ccc(C(C)(C)C)cc1)CN1C[C@@H](C)O[C@@H](C)C1 (single isomer, unassigned) | 4.93 | –
COC(=O)Nc1cccc(F)c1 | 2.21 | –
Nc1ncc2ncn(COCCO)c2n1 | -1.08 | –
CCCCC(OC(Cc1ccccc1)C(=O)N1CCC(OCOC)CC1)C(=O)NC(CC1CCCCC1)C(O)CC(C(=O)NCCCNc1n[nH]c(N)n1)C(C)C (centres undefined) | 4.3 | –
CC1CCC(=O)N1C (centres undefined) | -0.07 | –
O=C(O)c1cc(Oc2ccc(C(F)(F)F)cc2Cl)ccc1[N+](=O)[O-] | 3.7 | –
CC(C)OC(=O)c1cc(=O)[nH]c(=O)[nH]1 | 0.81 | –

Structure (SMILES) | logP | solubility [mM]
Clc1ccc2c(Cl)ccnc2c1 | 3.57 | –
CN(CCN)S(=O)(=O)c1ccc(C(C)(C)[N+](=O)[O-])c([N+](=O)[O-])c1 | 0.65 | –
CN(C)CCCN1c2cc(O)ccc2Sc2ccc(Cl)cc21 | 4.63 | –
NS(=O)(=O)c1cc(C2(O)NC(=O)c3ccccc32)ccc1Cl (centres undefined) | 0.85 | –
COc1ccc(Oc2ccc(NC(=O)N(C)C)cc2)cc1 | 2.54 | –
Cc1ccc2ccc3ccccc3c2c1 | 5.15 | –
CN1CC(C(=O)O)CC1=O (centres undefined) | -1.5 | –
CCC(=O)OC1(c2ccccc2)CCN(C)CC1CC (centres undefined) | 3.61 | –
CCC(O)(C(=O)O)c1ccc(CC(C)C)cc1 (centres undefined) | 3.37 | –
CNC(=O)Oc1cccc2c1OC(C)(C)C2 | – | 1.45 (≈ 0.32 mg/mL)
CC(C)=NNc1ccc([N+](=O)[O-])cc1[N+](=O)[O-] | 3.05 | –
COc1nc(C)nc(=NC(O)=NS(=O)(=O)c2ccccc2C(=O)O)[nH]1 | 1.7 | –
Cc1ccc(C(C)C)c(Cl)c1Cl | 5.5 | –
CCOc1ccccc1NCc1cnc2nc(N)nc(N)c2c1C | 2.07 | –
CCOc1ccc([N+](=O)[O-])cc1NC(=O)CC | 1.85 | –
COc1cccc(Nc2ccccc2C(=O)O)c1 | 4.31 | –
COc1ccc(N)c(S(=O)(=O)O)c1 | -3.49 | –
CCCCC[C@H](O)/C=C/[C@H]1[C@H](O)CC(=O)[C@@H]1CCCCCCC(=O)O | 3.2 | –
Cc1cc(Cc2ccc(Cl)c(Cl)c2)c(Cl)cc1Cl | 7.26 | –
CC(=O)CC(C)C | 1.31 | –

Same assay, conditions: 20 °C

Structure (SMILES) | solubility [mM]
CCOC(=O)C(O)(c1ccc(Cl)cc1)c1ccc(Cl)cc1 | 0.0351 (≈ 0.0114 mg/mL)
C=COC | 258 (≈ 15 mg/mL)
CCC(CO)[N+](=O)[O-] (centres undefined) | 453 (≈ 54 mg/mL)
CC(C)(CO)[N+](=O)[O-] | 29400 (≈ 3500 mg/mL)
N=C(N)N | 31.1 (≈ 1.84 mg/mL)
N#Cc1cccnc1 | 1300 (≈ 135 mg/mL)
Nc1c(Cl)cc([N+](=O)[O-])cc1Cl | 0.0338 (≈ 0.007 mg/mL)
CNC(=N)N | 24.4 (≈ 1.78 mg/mL)

Same assay, conditions: 23 °C

Structure (SMILES) | solubility [mM]
CC1=CCC(=C(C)C)CC1 | 0.0697 (≈ 0.0095 mg/mL)
CN(N=O)C(N)=O | 140 (≈ 14.4 mg/mL)

Same assay, conditions: 23.0 °C

Structure (SMILES) | log10 OH rate constant (cm³/molecule/s)
CC(C)CC(C)(C)O | -10.9
c1ccc2c(c1)OCCO2 | -10.6

Same assay, conditions: 24 °C

Structure (SMILES) | solubility [mM]
CC1CN(N=O)CC(C)O1 (centres undefined) | 860 (≈ 124 mg/mL)
CCCCN(CCCC)N=O | 8.03 (≈ 1.27 mg/mL)

Same assay, conditions: 24.0 °C

Structure (SMILES) | log10 OH rate constant (cm³/molecule/s)
C[Si](C)(C)C | -12

Same assay, conditions: 25 °C

Structure (SMILES) | solubility [mM]
O=C1c2ccccc2C(=O)c2c(O)cccc21 | 0.0379 (≈ 0.0085 mg/mL)
O=C(O)CC1CCCCC1 | 20.3 (≈ 2.88 mg/mL)
Clc1ccc(-c2ccccc2Cl)cc1 | 0.00524 (≈ 0.00117 mg/mL)
Cc1ccc2cc3ccc4ccccc4c3cc2c1 | 0.000227 (≈ 5.5e-05 mg/mL)
C#CCN1C(=O)COc2cc(F)c(N3C(=O)C4=C(CCCC4)C3=O)cc21 | 0.00505 (≈ 0.00179 mg/mL)
O=[N+]([O-])c1ccc(Nc2ccc(O)cc2)c([N+](=O)[O-])c1 | 0.0036 (≈ 0.00099 mg/mL)
CCC(CO)(CO)COCC(CC)(CO)CO | 104 (≈ 26 mg/mL)
OCCCc1ccccc1 | 41.7 (≈ 5.68 mg/mL)
COc1c(Cl)ccc(Cl)c1C(=O)O | 27.7 (≈ 6.12 mg/mL)
CC1CO1 (centres undefined) | 10200 (≈ 590 mg/mL)
Nc1ncc2ncn(COCCO)c2n1 | 83.7 (≈ 17.5 mg/mL)
CC1(C)[C@H]2CC[C@](C)(C2)[C@H]1O | 5.37 (≈ 0.828 mg/mL)
Cc1ccc2cc3c(ccc4ccccc43)c3c2c1CC3 | 1.08e-05 (≈ 2.9e-06 mg/mL)
Clc1cccc2cccc(Cl)c12 | 0.0016 (≈ 0.000315 mg/mL)
O=C(O)c1cccc(C(=O)O)c1 | 0.602 (≈ 0.1 mg/mL)
FC(F)(F)C(F)(Cl)Cl | 0.801 (≈ 0.137 mg/mL)

Same assay, conditions: 25.0 °C

Structure (SMILES) | log10 OH rate constant (cm³/molecule/s)
FC(F)(F)C(F)(F)C(F)(F)C(F)(F)N(C(F)(F)C(F)(F)C(F)(F)C(F)(F)F)C(F)(F)C(F)(F)C(F)(F)C(F)(F)F | < -16.2
NCC(F)(F)F | -12
Cc1cc2ccccc2cc1C | -10.2
CC1=CCC(=C(C)C)CC1 | -9.65
FC(F)(Cl)C(Cl)Cl | -13.3
Oc1ccc2ccccc2c1 | -9.77
O=C/C=C/C=C/C=O | -10
FC(F)CC(F)(F)F | -14.1
FC(Br)C(F)(F)F (centres undefined) | -13.8
CC1(C)C2CCC(=O)C1C2 (centres undefined) | -10.8
FC1(F)OC(F)(F)C1(F)F | < -15.7

Same assay, conditions: 27 °C

Structure (SMILES) | solubility [mM]
NCCc1c[nH]c2ccc(O)cc12 | 114 (≈ 20 mg/mL)

Same assay, conditions: 27.0 °C

Structure (SMILES) | log10 OH rate constant (cm³/molecule/s)
Cc1ccc(O)c(O)c1 | -9.81

Same assay, conditions: pH 7.4

Structure (SMILES) | logD
COc1c(C)c2c(c(O)c1C/C=C(\C)CCC(=O)OCCN1CCOCC1)C(=O)OC2 | 2.38
